Data taken from patent US20250017949A1, “METHODS AND COMPOSITIONS FOR SUPPRESSING AGING-ASSOCIATED CLONAL HEMATOPOIESIS” (The Jackson Laboratory, priority 2021, published 2025).

Columns and labels:
control HSCs [1] = test: Transplant of TNFα-treated cultured HSCs into recipient mice; format: in vivo, mouse
From the text: (§1) FIGS. 6A-6I: Dnmt3a-mutant HSCs maintain self-renewal and generate B lymphoid cells following TNF stimulation. (FIG. 6A) Schematic of experimental design to test response of Mx-Cre control and Dnmt3a^R878H/+ HSCs to recombinant TNFα ex vivo under growth conditions that favor HSC expansion. (FIG. 6B) Normalized frequency of donor-derived cells in PB of recipient mice post-transplant. Significance calculated using mixed-effects model with Fisher's LSD. (FIG. 6C) Representative flow cytometry plots showing B cell and myeloid cell frequencies in donor derived PB at 4 weeks post-transplant. (FIG. 6D) Frequency of myeloid (left) and B cells (right) in donor derived PB at 4 weeks post-transplant. Significance calculated using two-way ANOVA with Sidak's multiple comparison's test. (FIG. 6E) Schematic of experimental design to test TNFα response of Fgd5-Cre^ERT control vs. Fgd5-Cre^ERT Dnmt3a^R878H/+ HSCs, and germline Dnmt3a^+/+ vs. Dnmt3a^+/− HSCs. (FIGS. 6F-6G) Viable cell counts after 7 days of culture. Significance calculated using Brown-Forsythe and Welch ANOVA with Welch's correction. (FIG. 6H) Frequency of donor-derived cells in PB of recipient mice post-transplant. Significance calculated using mixed-effects model with Fisher's LSD. (FIG. 6I) Frequency of myeloid (left) and B cells (right) in donor derived PB at 4 weeks post-transplant. Significance calculated using one-way ANOVA with Fisher's LSD. (FIGS. 6B, 6D, and 6F-6I) Dots represent individual recipient mice, boxes show 25 to 75th percentile, line is median, whiskers show min to max. *P<0.05, **P<0.01, ***P<0.001.
(§2) To assess the extent to which TNFα directly promotes young Dnmt3a-mutant HSC survival, we added recombinant TNFα to mixed cultures of wild-type and Dnmt3a-mutant HSCs in media that sustains HSC self-renewal (FIG. 6A). […] Post culture, cells were transplanted into recipient mice to assess HSC function. […] Thus, TNFα-driven myeloid regeneration at the expense of HSC self-renewal is disrupted in Dnmt3a^R878H/+ HSCs. Instead, TNFα-treated Dnmt3a^R878H/+ HSCs favor lymphoid regeneration and maintain their self-renewal. To assess this in complementary models, we used tamoxifen-inducible Fgd5-Cre-driven Dnmt3a^R878H/+ mice as well as germline Dnmt3a^+/− mice to isolate HSCs for TNFα stimulation (FIG. 6E). […] Thus, TNFα-induced HSC survival and disrupted myeloid regeneration are broadly relevant to Dnmt3a-mutant clonal hematopoiesis.
(§3) Two months post-poly(I:C), 25 CD45.2^+ from Dnmt3a^+/+ Mx-Cre or Dnmt3a^fl-R878H/+ Mx-Cre donors (CD45.2+) and 25 CD45.1^+/CD45.2^+ HSCs were sorted into a 96-well plate with Ham's F12 media containing final concentrations of 1× Penicillin-streptomycin-glutamine (Gibco cat. #10378-016), 10 mM HEPES (Gibco cat. #15630080), 1× Insulin-transferrin-selenium-ethanolamine (Gibco cat. #51500-056), 100 ng/mL recombinant murine TPO (Biolegend cat. #593302), 10 ng/mL recombinant murine SCF (StemCell Technologies cat. #78064), and 1 mg/mL polyvinyl alcohol (Sigma cat. #P8136)^19+/−10 ng/mL recombinant murine TNF-α (PeproTech cat. #315-01A) and cultured for seven days at 37° C. and 5% CO2. TNF-α was spiked into the cultures on day 4 and 6. On day 7, half of the wells were stained and analyzed by flow cytometry and half of the wells were harvested, mixed with 1×10^6 CD45.1^+ post-ficoll whole BM cells, and transplanted into young, lethally irradiated CD45.1^+ recipients. PB was tracked monthly for six months post-transplant via flow cytometry.

Dnmt3a-mutant HSCs [2] = test: as above; format: in vivo, mouse
From the text: as §1, §2, §3

control HSCs [3] = test: PVA HSC culture with recombinant TNFα, cell number; format: cell-based, mouse
From the text: as §1
(§4) To assess the extent to which TNFα directly promotes young Dnmt3a-mutant HSC survival, we added recombinant TNFα to mixed cultures of wild-type and Dnmt3a-mutant HSCs in media that sustains HSC self-renewal (FIG. 6A). […]
as §3, with “TNF-α was spiked into the cultures on day 4 and 6.” left out, “PB was tracked monthly for six months post-transplant via flow cytometry.” left out

Dnmt3a-mutant HSCs [4] = test: PVA HSC culture with recombinant TNFα, cell number; format: cell-based, mouse; settings: recombinant TNFα added to mixed cultures of wild-type and Dnmt3a^R878H HSCs
From the text: as §1, §4
as §3, with “TNF-α was spiked into the cultures on day 4 and 6.” left out, “PB was tracked monthly for six months post-transplant via flow cytometry.” left out

[5] = donor-derived cells in PB post-transplant, FIG. 6B
[6] = post-transplant, data not shown

TNFα
Long-term multilineage engraftment of TNFα-treated control HSCs (control HSCs [1]; [5]): did not sustain long-term multilineage engraftment
HSC, MPP^Mk/E and MPP^G/M populations in bone marrow from TNFα-treated control HSCs (control HSCs [1]; [6]): trends toward reduced HSC, MPP^Mk/E, and MPP^G/M populations
Dnmt3a^+/− B lymphoid relative to myeloid cell production (Dnmt3a-mutant HSCs [2]; donor-derived PB at 4 weeks post-transplant, FIG. 6I): transiently increased Dnmt3a^+/− B lymphoid relative to myeloid cell production
Dnmt3a^R878H/+ B lymphoid cell production (Dnmt3a-mutant HSCs [2]; donor-derived PB at 4 weeks post-transplant, FIGS. 6C-6D): transiently increased Dnmt3a^R878H/+ B lymphoid cell production
Mature hematopoietic cell production and engraftment of TNFα-treated Dnmt3a^R878H/+ HSCs (Dnmt3a-mutant HSCs [2]; [5]): increased production of mature hematopoietic cells in the short term (4 weeks post-transplant) followed by sustained multilineage engraftment
HSC, MPP^Mk/E and MPP^G/M populations in bone marrow from TNFα-treated Dnmt3a^R878H/+ HSCs (Dnmt3a-mutant HSCs [2]; [6]): not observed in TNFα-treated Dnmt3a^R878H/+ HSCs
Multilineage engraftment of TNFα-treated Dnmt3a^+/− HSCs (Dnmt3a-mutant HSCs [2]; vs TNFα-treated control HSCs, FIG. 6H): sustained multilineage engraftment at a higher frequency than TNFα-treated control HSCs
Number of control cells produced over the culture period (control HSCs [3]; Mx-Cre control, 10 ng/mL TNF-α, seven days, data not shown): reduced the number of control
Viable cell counts of control cells after 7 days of culture (control HSCs [3]; controls of the Fgd5-Cre and germline Dnmt3a^+/− models, FIGS. 6F-6G): reduced the number of control
Wild-type progeny in mixed cultures (control HSCs [3]; recombinant TNFα added to mixed cultures of wild-type and Dnmt3a^R878H HSCs): depletion of wild-type progeny
Maintenance of Dnmt3a^R878H HSC progeny in mixed cultures (Dnmt3a-mutant HSCs [4]): preferential maintenance of Dnmt3a^R878H HSC progeny
